Data: patent US20110077237A1, “KINASE INHIBITORS” (VERTEX PHARMACEUTICALS INCORPORATED, priority 2007, published 2011)

Experiments:
PKC delta kinase = PKC delta kinase (Homo sapiens, UniProt Q05655); assay: PKC Delta coupled-enzyme kinase assay; assay type: biochemical; conditions: 46 nM PKC delta, 150 μM ATP, 30° C.; read-out: Ki PKC delta
Experimental: An assay buffer solution was prepared which consisted of 100 mM HEPES (pH 7.5), 10 mM MgCl2, 25 mM NaCl, 0.1 mM EDTA and 0.01% Brij. […] To 16 μL of this enzyme buffer, in a 384 well plate, was added 1 μL of VRT stock solution in DMSO. The mixture was allowed to equilibrate for 10 mins at 30° C. […] Ki values were calculated from initial rate data by non-linear regression using the Prism software package (Prism 4.0a, Graphpad Software, San Diego, Calif.).

PKC alpha kinase = PKC alpha kinase (Homo sapiens, UniProt P17252); assay: PKC Alpha coupled-enzyme kinase assay; assay type: biochemical; conditions: 4.5 nM PKC alpha, 130 μM ATP, 30° C.
Experimental: An assay buffer solution was prepared which consisted of 100 mM HEPES (pH 7.5), 10 mM MgCl2, 25 mM NaCl, 0.1 mM EDTA, 100 μM CaCl2 and 0.01% Brij. […] To 16 μL of this enzyme buffer, in a 384 well plate, was added 1 μL of VRT stock solution in DMSO. The mixture was allowed to equilibrate for 10 mins at 30° C. The enzyme reaction was initiated by the addition of 16 μL stock ATP solution prepared in assay buffer to a final assay concentration of 130 μM. Initial rate data was determined from the rate of change of absorbance at 340 nm (corresponding to stoichiometric consumption of NADH) using a Molecular Devices Spectramax plate reader (Sunnyvale, Calif.) over 15 mins at 30° C. For each Ki determination 12 data points covering the VRT concentration range of 0-20 μM were obtained in duplicate (DMSO stocks were prepared from an initial 10 mM VRT stock with subsequent 1:2 serial dilutions). Ki values were calculated from initial rate data by non-linear regression using the Prism software package (Prism 4.0a, Graphpad Software, San Diego, Calif.).

Chain of PKC delta kinase (Q05655 whole entry): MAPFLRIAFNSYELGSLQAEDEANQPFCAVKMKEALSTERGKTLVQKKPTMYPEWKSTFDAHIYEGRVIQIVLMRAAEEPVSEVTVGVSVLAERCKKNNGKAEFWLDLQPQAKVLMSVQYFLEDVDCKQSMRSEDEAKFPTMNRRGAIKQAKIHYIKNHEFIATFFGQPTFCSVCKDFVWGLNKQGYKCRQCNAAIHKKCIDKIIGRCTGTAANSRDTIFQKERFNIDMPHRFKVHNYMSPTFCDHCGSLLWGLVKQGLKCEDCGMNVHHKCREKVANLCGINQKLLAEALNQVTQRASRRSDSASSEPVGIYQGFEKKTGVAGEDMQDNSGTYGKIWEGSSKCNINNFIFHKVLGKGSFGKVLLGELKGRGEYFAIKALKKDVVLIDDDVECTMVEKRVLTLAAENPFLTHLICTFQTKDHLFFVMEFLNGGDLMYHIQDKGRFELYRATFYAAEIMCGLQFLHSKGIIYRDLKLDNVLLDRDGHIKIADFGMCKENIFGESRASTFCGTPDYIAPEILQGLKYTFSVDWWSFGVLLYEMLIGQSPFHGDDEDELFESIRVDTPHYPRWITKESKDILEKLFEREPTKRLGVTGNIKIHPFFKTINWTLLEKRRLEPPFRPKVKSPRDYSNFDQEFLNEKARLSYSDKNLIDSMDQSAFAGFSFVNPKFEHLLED

| Compound | Ki (PKC delta kinase) | Ki (PKC alpha kinase) |
| --- | --- | --- |
| Nc1ncccc1C(=O)c1cccc(N2CCCN(C(=O)c3sccc3Cl)CC2)n1 [compound 92] | 500 to 2800 nM | 500 to 2800 nM |
| C#Cc1cnc(N)c(C(=O)c2cccc(N3CCCNCC3)n2)c1 [compound 108] | – | < 50 nM |
| Cc1sc(N2CCCNCC2)nc1C(=O)c1cccnc1N [compound 109] | 500 to 2800 nM | 500 to 2800 nM |
| Nc1ncccc1C(=O)c1cncc(N2CCCNCC2)n1 [compound 157] | 50 to 500 nM | 500 to 2800 nM |
| Nc1ncccc1C(=O)c1cncc(N2CCC(N)CC2)n1 [compound 161] | 500 to 2800 nM | 500 to 2800 nM |
| Nc1ncc(CCc2ccccc2)cc1C(=O)c1cccc(N2CCCNCC2)n1 [compound 187] | 50 to 500 nM | < 50 nM |
| Nc1ncc(Cc2ccccc2)cc1C(=O)c1cccc(N2CCCNCC2)n1 [compound 188] | 50 to 500 nM | < 50 nM |
| C=Cc1cnc(N)c(C(=O)c2cccc(N3CCNCC3)n2)c1 [compound 202] | – | < 50 nM |
| Cc1ccc(N2CCNCC2)nc1C(=O)c1cccnc1N [compound 230] | 500 to 2800 nM | 500 to 2800 nM |
| Nc1ncc(Br)cc1C(=O)c1cccc(N2CCNC(c3ccccc3)C2)n1 (stereo not drawn) [compound 240] | 50 to 500 nM | < 50 nM |
| C=Cc1cnc(N)c(C(=O)c2cccc(N3CCNC(c4ccccc4)C3)n2)c1 (stereo not drawn) [compound 241] | 50 to 500 nM | < 50 nM |
| CC[C@@H]1CNCCN1c1cccc(C(=O)c2cccnc2N)n1 [compound 243] | 50 to 500 nM | 500 to 2800 nM |
| CC(C)=Cc1cnc(N)c(C(=O)c2cccc(N3CCCNCC3)n2)c1 [compound 246] | 50 to 500 nM | < 50 nM |
| Nc1ncccc1C(=O)c1cccc(N2CCNC(c3ccc(Cl)cc3)C2)n1 (stereo not drawn) [compound 307] | 500 to 2800 nM | 500 to 2800 nM |
| COc1ccc(C2CN(c3cccc(C(=O)c4cccnc4N)n3)CCN2)cc1 (stereo not drawn) [compound 310] | 50 to 500 nM | 500 to 2800 nM |
| Nc1ncccc1C(=O)c1cccc(N2CCNC(c3ccc(O)cc3)C2)n1 (stereo not drawn) [compound 312] | 50 to 500 nM | – |
| Nc1ncccc1C(=O)c1cccc(N2CCNC(c3ccc(Cl)c(Cl)c3)C2)n1 (stereo not drawn) [compound 313] | 50 to 500 nM | – |
| Nc1ncccc1C(=O)c1nc(N2CCNCC2)ccc1Cl [compound 315] | 50 to 500 nM | – |
| Nc1ncccc1C(=O)c1nc(N2CCNCC2)ccc1C(F)(F)F [compound 316] | 50 to 500 nM | – |

| Compound | Ki (PKC delta kinase) | Ki (PKC alpha kinase) |
| --- | --- | --- |
| Nc1ncccc1C(=O)c1nc(N2CCC(N)CC2)ccc1Cl [compound 322] | 50 to 500 nM | – |
| Nc1ncc(Br)cc1C(=O)c1nc(N2CCNCC2)ccc1C(F)(F)F [compound 325] | 50 to 500 nM | < 50 nM |
| C=Cc1cnc(N)c(C(=O)c2nc(N3CCNCC3)ccc2C(F)(F)F)c1 [compound 327] | – | < 50 nM |
| Nc1ncc(Br)cc1C(=O)c1nc(N2CCNCC2)ccc1Cl [compound 329] | 50 to 500 nM | – |
| C=Cc1cnc(N)c(C(=O)c2nc(N3CCNCC3)ccc2Cl)c1 [compound 330] | – | < 50 nM |
| Nc1ncc(Br)cc1C(=O)c1nc(N2CCNC(c3ccccc3)C2)ccc1Cl (stereo not drawn) [compound 331] | 50 to 500 nM | – |
| C=Cc1cnc(N)c(C(=O)c2nc(N3CCNC(c4ccccc4)C3)ccc2Cl)c1 (stereo not drawn) [compound 332] | 50 to 500 nM | < 50 nM |
| NCC1CCCN(c2cccc(C(=O)c3cccnc3N)n2)C1 (stereo not drawn) [compound 333] | > 2800 nM | > 2800 nM |
| Cc1cccc(C2CN(c3cccc(C(=O)c4cccnc4N)n3)CCN2)c1 (stereo not drawn) [compound 335] | 50 to 500 nM | – |
| Cc1ccc(C2CN(c3cccc(C(=O)c4cccnc4N)n3)CCN2)cc1 (stereo not drawn) [compound 336] | 500 to 2800 nM | 500 to 2800 nM |
| Cc1ccccc1C1CN(c2cccc(C(=O)c3cccnc3N)n2)CCN1 (stereo not drawn) [compound 339] | 50 to 500 nM | 500 to 2800 nM |
| Nc1ncccc1C(=O)c1nc(Cl)cnc1N1CCNCC1 [compound 340] | > 2800 nM | > 2800 nM |
| Nc1ncccc1C(=O)c1nccc(N2CCNC(c3ccccc3)C2)n1 (stereo not drawn) [compound 341] | > 2800 nM | > 2800 nM |
| Nc1ncccc1C(=O)c1nc(N2CCNCC2)cnc1Cl [compound 343] | 50 to 500 nM | 500 to 2800 nM |
| Nc1ncccc1C(=O)c1nccc(N2CCNCC2)n1 [compound 344] | > 2800 nM | > 2800 nM |
| CCc1ccc(N2CCNCC2)nc1C(=O)c1cccnc1N [compound 348] | 50 to 500 nM | > 2800 nM |
| Nc1ncccc1C(=O)c1nc(NC[C@@H](N)c2ccccc2)ccc1C(F)(F)F [compound 388] | – | < 50 nM |
| Nc1ncccc1C(=O)c1nc(OCC(N)c2ccccc2)ccc1C(F)(F)F (stereo not drawn) [compound 415] | – | < 50 nM |

Continued, values first:

| Ki (PKC delta kinase) | Ki (PKC alpha kinase) | Compound |
| --- | --- | --- |
| 50 to 500 nM | 500 to 2800 nM | Nc1ncccc1C(=O)c1cccc(N2CCNC(CO)C2)n1 (stereo not drawn) [compound 303] |
| 50 to 500 nM | – | Nc1ncccc1C(=O)c1cccc(N2CCNC(c3cccc(C(F)(F)F)c3)C2)n1 (stereo not drawn) [compound 314] |
| 50 to 500 nM | – | Nc1ncccc1C(=O)c1nc(N2CCNC(c3ccccc3)C2)ccc1C(F)(F)F (stereo not drawn) [compound 317] |
| 50 to 500 nM | – | Nc1ncccc1C(=O)c1nc(N2CCCNCC2)ccc1C(F)(F)F [compound 318] |
| 50 to 500 nM | – | Nc1ncccc1C(=O)c1nc(N2CCNC(c3ccccc3)C2)ccc1Cl (stereo not drawn) [compound 321] |
| – | < 50 nM | CC(C)C[C@H]1CN(c2ccc(Cl)c(C(=O)c3cccnc3N)n2)CCN1 [compound 323] |
| 50 to 500 nM | – | Nc1ncccc1C(=O)c1nc(N2CCCNCC2)ccc1Cl [compound 324] |
| 50 to 500 nM | < 50 nM | Nc1ncc(Br)cc1C(=O)c1nc(N2CCNC(c3ccccc3)C2)ccc1C(F)(F)F (stereo not drawn) [compound 326] |
| 50 to 500 nM | < 50 nM | C=Cc1cnc(N)c(C(=O)c2nc(N3CCNC(c4ccccc4)C3)ccc2C(F)(F)F)c1 (stereo not drawn) [compound 328] |
| 50 to 500 nM | 500 to 2800 nM | CC(C)[C@H]1CN(c2ccc(C(F)(F)F)c(C(=O)c3cccnc3N)n2)CCN1 [compound 338] |
| 50 to 500 nM | 500 to 2800 nM | C=Cc1ccc(N2CCNCC2)nc1C(=O)c1cccnc1N [compound 342] |
| > 2800 nM | 500 to 2800 nM | CC(C)C[C@H]1CN(c2ccnc(C(=O)c3cccnc3N)n2)CCN1 [compound 345] |
| 50 to 500 nM | 500 to 2800 nM | CCc1ccc(N2CCNC(c3ccccc3)C2)nc1C(=O)c1cccnc1N (stereo not drawn) [compound 350] |
| 500 to 2800 nM | > 2800 nM | CC(=O)c1ccc(N2CCN[C@@H](CC(C)C)C2)nc1C(=O)c1cccnc1N [compound 351] |
| – | 500 to 2800 nM | CC(C)C[C@H]1CN(c2ccc(C3CC3)c(C(=O)c3cccnc3N)n2)CCN1 [compound 352] |
| 50 to 500 nM | 500 to 2800 nM | CC(F)(F)c1ccc(N2CCNC(c3ccccc3)C2)nc1C(=O)c1cccnc1N (stereo not drawn) [compound 355] |
| 50 to 500 nM | – | CC(C)C[C@H]1CN(c2ccc(OC(F)F)c(C(=O)c3cccnc3N)n2)CCN1 [compound 356] |

| Ki (PKC delta kinase) | Ki (PKC alpha kinase) | Compound |
| --- | --- | --- |
| 50 to 500 nM | 500 to 2800 nM | Nc1ncccc1C(=O)c1nc(N2CCNC(c3ccccc3)C2)ccc1OC(F)F (stereo not drawn) [compound 360] |
| 500 to 2800 nM | 500 to 2800 nM | NCCSc1ccc(C(F)(F)F)c(C(=O)c2cccnc2N)n1 [compound 367] |
| 500 to 2800 nM | 500 to 2800 nM | NCCNc1ccc(C(F)(F)F)c(C(=O)c2cccnc2N)n1 [compound 371] |
| 500 to 2800 nM | 500 to 2800 nM | NCCCNc1ccc(C(F)(F)F)c(C(=O)c2cccnc2N)n1 [compound 372] |
| 50 to 500 nM | 500 to 2800 nM | Nc1ncccc1C(=O)c1nc(NCC2CCNC2)ccc1C(F)(F)F (stereo not drawn) [compound 377] |
| 500 to 2800 nM | 500 to 2800 nM | Nc1ncccc1C(=O)c1nc(NCC2CCCN2)ccc1C(F)(F)F (stereo not drawn) [compound 379] |
| – | 500 to 2800 nM | CCCc1ccc(N2CCN[C@@H](CC(C)C)C2)nc1C(=O)c1cccnc1N [compound 385] |
| 50 to 500 nM | 500 to 2800 nM | Nc1ncccc1C(=O)c1nc(NCC2CCCNC2)ccc1C(F)(F)F (stereo not drawn) [compound 387] |
| 50 to 500 nM | < 50 nM | Cc1cccc(C2CN(c3ccc(C(F)(F)F)c(C(=O)c4cccnc4N)n3)CCN2)c1 (stereo not drawn) [compound 392] |
| 500 to 2800 nM | 500 to 2800 nM | CC(C)[C@H](N)CNc1ccc(C(F)(F)F)c(C(=O)c2cccnc2N)n1 [compound 395] |
| 50 to 500 nM | – | CC(C)C[C@H](N)CNc1ccc(C(F)(F)F)c(C(=O)c2cccnc2N)n1 [compound 396] |
| 50 to 500 nM | – | COc1cccc(C2CN(c3ccc(C(F)(F)F)c(C(=O)c4cccnc4N)n3)CCN2)c1 (stereo not drawn) [compound 397] |
| 50 to 500 nM | – | Nc1ncccc1C(=O)c1nc(N2CCNC(c3ccccc3)C2)ccc1C(F)F (stereo not drawn) [compound 404] |
| 50 to 500 nM | – | CC(C)C[C@H](N)COc1ccc(C(F)(F)F)c(C(=O)c2cccnc2N)n1 [compound 406] |
| 50 to 500 nM | – | CC#Cc1ccc(N2CCNCC2)nc1C(=O)c1cccnc1N [compound 412] |
| – | 500 to 2800 nM | CC(C)C[C@H]1CN(c2ccc(Cc3ccccc3)c(C(=O)c3cccnc3N)n2)CCN1 [compound 418] |
